According to the NIST ThermoML archive (doi:10.1016/j.jct.2008.05.010):
Numbers after ± are expanded uncertainties.

Assays:
[1] = refractive index (Na D-line) (dimensionless); conditions: 298.15 K; 101.33 kPa; Liquid; Standard Abbe refractometry
[2] = 298.15 K; 101.33 kPa; Liquid

In the case of `CN(C)C=O` [dimethylformamide], the refractive index [1] is reported as 1.4279 ± 0.0007 and the mass density [2] is reported as 943.87 ± 0.26 kg/m3.
Compound `C[S+](C)[O-]` [dimethyl sulfoxide] has a refractive index [1] of 1.4771 ± 0.0007 and a mass density [2] of 1095.66 ± 0.15 kg/m3.
With `NC=O` [formamide] the refractive index [1] was 1.4463 ± 0.0007 and the mass density [2] was 1129.11 ± 0.4 kg/m3.
Compound `CC(=O)N(C)C` [N,N-dimethylethanamide] has a refractive index [1] of 1.4362 ± 0.0007 and a mass density [2] of 936.44 ± 0.13 kg/m3.
`CC(C)=O` [acetone] gave a refractive index [1] of 1.3564 ± 0.0007 and a mass density [2] of 784.59 ± 0.24 kg/m3.
In the case of `CNC=O` [N-methylformamide], the refractive index [1] is reported as 1.4303 ± 0.0007 and the mass density [2] is reported as 998.97 ± 0.39 kg/m3.
